Entries after “also recorded” stand apart in the source; their conditions may differ.
How the values were obtained:
[1] = system: primary dendritic cells; experiment: Lipofection transfection efficiency in primary dendritic cells; type: cell-based, human
[2] = system: polarized cell line MDCK-C7
[3] = system: COS-7 cell-line; experiment: Lipofection (luciferase reporter) transfection efficiency in COS-7 cells; type: cell-based, African green monkey
Excerpt: Screening / Lipofection studies: For a broad and reproducible testing the transfection properties of systematically varied new cationic lipids, we recently have developed an fully automated high throughput system ([…]. et al., J. Biomol. Screening (2001)). This system, which comprises the entire lipofection process from liposome formation to reporter gene assay, allows to identify candidate cationic lipids and to develop suitable lipofection reagents and protocols based on those lipids. Automation of this process was necessary, because manually testing of various cationic lipids or lipid mixtures is extremely labor intensive and high reproducibility can not be guarantied. Goal of this first step was to find the cationic lipid with the best hydrocarbon chain composition for the development of suitable lipofection reagents and protocols. All lipids with different hydrocarbon chains (lipids 1-16, table 1) which are R-configurated and have chloride as counter ion were tested using a standard protocol: From each lipid, eight different lipoplexes containing equimolar amounts of the helper lipid DOPE were formed using different DNA:lipid-charge ratios from 1:1 - 1:15, resulting in a lipofection profile for each lipid (fig. 1). The COS-7 cell-line was used for this first lipofection study because COS-7 is easy to transfect and differences between the lipids are easy to identify. For comparison, the transfection efficiency of the well know cationic lipid DOTAP at its best lipid/DNA charge ration of 2.5 was also determined in each run. Cell culture: The initial transfection screening was carried out using COS-7 cells. The cells were maintained in 96-well culture plates (Greiner, Frickenhausen, Germany) in 200 μl EMEM/10 % FCS/1 % Penicillin-streptomycin in a humidified atmosphere at 37 °C/5 % CO2. […] For the subsequent quantification of transfection efficiency (part 2) a reporter plasmid carrying the firefly luciferase gene under the control of the CMV promoter is used to form lipoplexes. […]

[4] = system: mamma carcinoma cell line MCF-7; experiment: Lipofection transfection efficiency in MCF-7 cells; type: cell-based
[5] = system: mamma carcinoma cell line MDA-MB-468; experiment: Lipofection transfection efficiency in MDA-MB-468 cells; type: cell-based
[6] = system: COS-7 cell-line; experiment: Cytotoxicity of lipoplexes (protein content of transfected versus non-transfected cells); type: cell-based, African green monkey; conditions: Chol as helper lipid, ratio 0.7, chloride
Description: (§1) Goal of this first step was to find the cationic lipid with the best hydrocarbon chain composition for the development of suitable lipofection reagents and protocols. All lipids with different hydrocarbon chains (lipids 1-16, table 1) which are R-configurated and have chloride as counter ion were tested using a standard protocol: From each lipid, […] DNA:lipid-charge ratios from 1:1 - 1:15, resulting in a lipofection profile for each lipid (fig. 1). The COS-7 cell-line was used for this first lipofection study because COS-7 is easy to transfect and differences between the lipids are easy to identify. For comparison, the transfection efficiency of the well know cationic lipid DOTAP at its best lipid/DNA charge ration of 2.5 was also determined in each run. Part 2 (Transfection assays): After lipoplex formation, the robot took the cell culture microtiter plates from an incubator and removed the lid from the plates. Immediately prior to transfection, 100 µl of the culture medium were removed and the lipoplexes were dispensed into the wells (triplicates). The lids were replaced and the MTP were returned to the incubator. […] Assay specific standards and controls were added to the microplates, and luciferase activity and protein content of the lysates were measured. Transfection efficiencies were calculated by dividing luciferase activity by protein content.

[7] = as above; type: cell-based, African green monkey; conditions: monkey, cos-7 cells; equimolar DOPE, COS-7; read-out: vitality of the cells at maximum transfection efficiency
Description: as §1

[8] = system: COS-7 cell-line; experiment: Lipofection (luciferase reporter) transfection efficiency in COS-7 cells; type: cell-based, African green monkey; remark: listed apart in the source
[9] = racemic, chloride, 70 mol-% cholesterol
[10] = racemic, chloride, 70 mol-% cholesterol, MDA-MB-468

CCCCCCCC/C=C\CCCCCCCC(=O)OCC(C[N+](C)(C)C)OC(=O)CCCCCCC/C=C\CCCCCCCC (stereo not shown) [DOTAP, N-(1(2,-dioleyoyl)propyl)-N,N,N-trimethylammonium chloride, reference compound]
transfection efficiency ([1]; DC 5day, lower line): 3,18 +/- 5,87 (3) rlu/µg protein/ml | transfection efficiency [2]: 26,64 +/- 3,33 (2) rlu/µg protein/ml | transfection efficiency ([3]; COS-7, lower line): 466,72 +/- 320,44 (11) rlu/µg protein/ml | transfection efficiency ([4]; lower line): 101,65 +/- 93,42 (7) rlu/µg protein/ml | transfection efficiency ([5]; MDA-MB468, lower line): 92,58 +/- 82,86 (9) rlu/µg protein/ml

CCCCCCCCCCCCCC[N+](C)(CCCCCCCCCCCCCC)CC(O)CO (stereo not shown) [KL-14]
factor by which transfection efficiency is reduced in comparison with COS-7-cells ([1]; racemic, chloride, 70 mol-% cholesterol, dendritic cell): about 600 | transfection efficiency, fold increase over DOTAP ([1]; racemic, chloride, 70 mol-% cholesterol, dendritic cells): 1.5-2 | factor by which transfection efficiency is reduced in comparison with COS-7-cells [2]: about 100 | transfection efficiency, fold increase over DOTAP [2]: 1.5-2 | toxicity, R- versus S-configuration [6]: statistically similar | viability [7]: ~70% | transfection efficiency (comparison within the library) ([3]; R-configurated, chloride, equimolar DOPE, COS-7): most effective; also recorded: highest transfection efficiency | transfection efficiency, R- versus S-configuration ([8]; Chol as helper lipid, ratio 0.7, chloride): statistically similar | Chol/KL-14 ratio giving highest transfection efficiency ([8]; Cholesterol as helper lipid): 0.5-0.7 | transfection efficiency ([8]; Cholesterol as helper lipid, Chol/KL-14 ratios 0.3 - 1.2, compared with DOPE mixtures): always higher than for the mixtures of KL-14 with DOPE | transfection efficiency ([8]; DOPE as helper lipid, DOPE/KL-14 ratio 0.3 to 1.2): very high | transfection efficiency as % of the chloride values ([8]; racemic, counter ion acetate, cholesterol/KL-14 ratio 0.7): 57% | transfection efficiency (comparison of counter ions) ([8]; racemic, counter ion chloride, cholesterol/KL-14 ratio 0.7): highest transfection efficiency | transfection efficiency as % of the values found for chloride ([8]; racemic, counter ion methylsulfate, cholesterol/KL-14 ratio 0.7): 70-75% | transfection efficiency as % of the values found for chloride ([8]; racemic, counter ion sulfate, cholesterol/KL-14 ratio 0.7): 70-75% | transfection efficiency as % of that of the standard lipid DOTAP ([8]; without helper lipids): 70% | transfection efficiency, DOPE-formulation compared with cholesterol mixture ([4]; equimolar mixture with DOPE): lower | factor by which transfection efficiency is reduced in comparison with COS-7-cells [4, 9]: about 12 | transfection efficiency, times higher than for DOTAP [4, 9]: 8 | transfection efficiency, DOPE-formulation compared with cholesterol mixture ([5]; equimolar mixture with DOPE, MDA-MB-468): lower | factor by which transfection efficiency is reduced in comparison with COS-7-cells [5, 10]: about 12 | transfection efficiency, times higher than for DOTAP [5, 10]: 8

CCCCCCCCCCCCCCN(CCCCCCCCCCCCCC)CC(O)CO (stereo not shown) [KL-14-analog which was not methylated]
transfection ([3]; not methylated analog): did not transfect at all
